From the NIST ThermoML archive (doi:10.1016/j.jct.2006.09.016)
± gives the expanded uncertainty stated by the source.

Legend:
[1] = Molar enthalpy of transition or fusion; details: Crystal; DSC
[2] = Crystal; DTA
[3] = molar heat capacity at constant pressure; details: 101.33 kPa, Crystal

ON=Cc1ccccn1 [2-pyridinealdoxime]
Molar enthalpy of transition or fusion [1]: 4.78 ± 0.143 kcal/mol
Normal melting temperature [2]: 113.08 ± 0.5 °C
molar heat capacity at constant pressure ([3]; 80.46 K): 51.68 ± 0.57 J/K/mol
molar heat capacity at constant pressure ([3]; 84.39 K): 53.78 ± 0.59 J/K/mol
molar heat capacity at constant pressure ([3]; 87.27 K): 55.38 ± 0.6 J/K/mol
molar heat capacity at constant pressure ([3]; 90.22 K): 57.07 ± 1 J/K/mol
molar heat capacity at constant pressure ([3]; 93.26 K): 58.78 ± 1 J/K/mol
molar heat capacity at constant pressure ([3]; 96.22 K): 60.42 ± 1 J/K/mol
molar heat capacity at constant pressure ([3]; 99.1 K): 61.8 ± 1 J/K/mol
molar heat capacity at constant pressure ([3]; 102.07 K): 63.16 ± 1.1 J/K/mol
molar heat capacity at constant pressure ([3]; 105.13 K): 64.65 ± 1.1 J/K/mol
molar heat capacity at constant pressure ([3]; 108.12 K): 65.95 ± 1.1 J/K/mol
molar heat capacity at constant pressure ([3]; 111.05 K): 67.4 ± 1.1 J/K/mol
molar heat capacity at constant pressure ([3]; 113.93 K): 68.69 ± 1.1 J/K/mol
molar heat capacity at constant pressure ([3]; 116.9 K): 69.94 ± 1.1 J/K/mol
molar heat capacity at constant pressure ([3]; 119.96 K): 71.33 ± 1.1 J/K/mol
molar heat capacity at constant pressure ([3]; 122.97 K): 72.93 ± 1.1 J/K/mol
molar heat capacity at constant pressure ([3]; 125.94 K): 74.14 ± 1.1 J/K/mol
molar heat capacity at constant pressure ([3]; 128.85 K): 75.41 ± 1.1 J/K/mol
molar heat capacity at constant pressure ([3]; 131.74 K): 76.56 ± 1.1 J/K/mol
molar heat capacity at constant pressure ([3]; 134.71 K): 77.89 ± 1.1 J/K/mol
molar heat capacity at constant pressure ([3]; 137.77 K): 79.05 ± 1.1 J/K/mol
molar heat capacity at constant pressure ([3]; 140.8 K): 80.49 ± 1.1 J/K/mol
molar heat capacity at constant pressure ([3]; 143.79 K): 81.65 ± 1.1 J/K/mol
molar heat capacity at constant pressure ([3]; 146.74 K): 82.72 ± 1.1 J/K/mol
molar heat capacity at constant pressure ([3]; 149.66 K): 83.99 ± 1.1 J/K/mol
molar heat capacity at constant pressure ([3]; 152.56 K): 85.27 ± 1.1 J/K/mol
molar heat capacity at constant pressure ([3]; 155.54 K): 86.71 ± 1.1 J/K/mol
molar heat capacity at constant pressure ([3]; 158.61 K): 87.83 ± 1.2 J/K/mol
molar heat capacity at constant pressure ([3]; 161.66 K): 88.91 ± 1.2 J/K/mol
molar heat capacity at constant pressure ([3]; 164.67 K): 90.3 ± 1.2 J/K/mol
molar heat capacity at constant pressure ([3]; 167.66 K): 91.7 ± 1.2 J/K/mol
molar heat capacity at constant pressure ([3]; 170.63 K): 92.91 ± 1.2 J/K/mol
molar heat capacity at constant pressure ([3]; 173.58 K): 93.88 ± 1.2 J/K/mol
molar heat capacity at constant pressure ([3]; 176.5 K): 95.23 ± 1.2 J/K/mol
molar heat capacity at constant pressure ([3]; 179.4 K): 96.67 ± 1.2 J/K/mol
molar heat capacity at constant pressure ([3]; 182.38 K): 97.92 ± 1.2 J/K/mol
molar heat capacity at constant pressure ([3]; 185.45 K): 99.23 ± 1.2 J/K/mol
molar heat capacity at constant pressure ([3]; 188.5 K): 100.67 ± 1.2 J/K/mol
molar heat capacity at constant pressure ([3]; 191.52 K): 101.97 ± 1.2 J/K/mol
molar heat capacity at constant pressure ([3]; 194.53 K): 103.16 ± 1.2 J/K/mol
molar heat capacity at constant pressure ([3]; 197.5 K): 104.64 ± 1.2 J/K/mol
molar heat capacity at constant pressure ([3]; 200.47 K): 106.06 ± 1.2 J/K/mol
molar heat capacity at constant pressure ([3]; 203.41 K): 107 ± 1.2 J/K/mol
molar heat capacity at constant pressure ([3]; 206.33 K): 108.59 ± 1.2 J/K/mol
molar heat capacity at constant pressure ([3]; 209.23 K): 109.82 ± 1.2 J/K/mol
molar heat capacity at constant pressure ([3]; 212.22 K): 111.35 ± 1.2 J/K/mol
molar heat capacity at constant pressure ([3]; 215.29 K): 112.9 ± 1.3 J/K/mol
molar heat capacity at constant pressure ([3]; 218.35 K): 113.97 ± 1.3 J/K/mol
molar heat capacity at constant pressure ([3]; 221.38 K): 115.37 ± 1.3 J/K/mol
molar heat capacity at constant pressure ([3]; 224.38 K): 117.31 ± 1.3 J/K/mol
molar heat capacity at constant pressure ([3]; 227.37 K): 118.7 ± 1.3 J/K/mol
molar heat capacity at constant pressure ([3]; 230.3 K): 120 ± 1.3 J/K/mol
molar heat capacity at constant pressure ([3]; 233.32 K): 121.77 ± 1.3 J/K/mol
molar heat capacity at constant pressure ([3]; 236.35 K): 123.52 ± 1.3 J/K/mol
molar heat capacity at constant pressure ([3]; 239.26 K): 124.25 ± 1.3 J/K/mol
molar heat capacity at constant pressure ([3]; 242.25 K): 125.83 ± 1.3 J/K/mol
molar heat capacity at constant pressure ([3]; 245.32 K): 127.09 ± 1.3 J/K/mol
molar heat capacity at constant pressure ([3]; 248.39 K): 128.4 ± 1.3 J/K/mol
molar heat capacity at constant pressure ([3]; 251.44 K): 129.85 ± 1.3 J/K/mol
molar heat capacity at constant pressure ([3]; 254.47 K): 130.36 ± 1.3 J/K/mol
molar heat capacity at constant pressure ([3]; 257.5 K): 131.52 ± 1.3 J/K/mol
molar heat capacity at constant pressure ([3]; 260.5 K): 132.74 ± 1.3 J/K/mol
molar heat capacity at constant pressure ([3]; 263.49 K): 134.49 ± 1.3 J/K/mol
molar heat capacity at constant pressure ([3]; 266.46 K): 136.14 ± 1.3 J/K/mol
molar heat capacity at constant pressure ([3]; 269.41 K): 137.72 ± 1.4 J/K/mol
molar heat capacity at constant pressure ([3]; 272.35 K): 139.5 ± 1.4 J/K/mol
molar heat capacity at constant pressure ([3]; 275.26 K): 140.58 ± 1.4 J/K/mol
molar heat capacity at constant pressure ([3]; 278.17 K): 142.55 ± 1.4 J/K/mol
molar heat capacity at constant pressure ([3]; 281.06 K): 143.7 ± 1.4 J/K/mol
molar heat capacity at constant pressure ([3]; 284.01 K): 145.45 ± 1.4 J/K/mol
molar heat capacity at constant pressure ([3]; 287.04 K): 147.06 ± 1.4 J/K/mol
molar heat capacity at constant pressure ([3]; 290.04 K): 148.68 ± 1.4 J/K/mol
molar heat capacity at constant pressure ([3]; 293.01 K): 149.59 ± 1.4 J/K/mol
molar heat capacity at constant pressure ([3]; 295.98 K): 150.99 ± 1.4 J/K/mol
molar heat capacity at constant pressure ([3]; 298.93 K): 152.1 ± 1.4 J/K/mol
molar heat capacity at constant pressure ([3]; 301.87 K): 153.86 ± 1.4 J/K/mol
molar heat capacity at constant pressure ([3]; 304.78 K): 154.72 ± 1.4 J/K/mol
molar heat capacity at constant pressure ([3]; 307.69 K): 155.91 ± 1.4 J/K/mol
molar heat capacity at constant pressure ([3]; 310.57 K): 157.91 ± 1.4 J/K/mol
molar heat capacity at constant pressure ([3]; 313.44 K): 159.33 ± 1.4 J/K/mol
molar heat capacity at constant pressure ([3]; 316.29 K): 160.28 ± 1.4 J/K/mol
molar heat capacity at constant pressure ([3]; 319.11 K): 161.83 ± 1.4 J/K/mol
molar heat capacity at constant pressure ([3]; 321.92 K): 163.28 ± 1.5 J/K/mol
molar heat capacity at constant pressure ([3]; 324.8 K): 164.64 ± 1.5 J/K/mol
molar heat capacity at constant pressure ([3]; 327.74 K): 165.88 ± 1.5 J/K/mol
molar heat capacity at constant pressure ([3]; 330.66 K): 167.18 ± 1.5 J/K/mol
molar heat capacity at constant pressure ([3]; 333.57 K): 168.11 ± 1.5 J/K/mol
molar heat capacity at constant pressure ([3]; 336.45 K): 169.62 ± 1.5 J/K/mol
molar heat capacity at constant pressure ([3]; 339.31 K): 171.01 ± 1.5 J/K/mol
molar heat capacity at constant pressure ([3]; 342.16 K): 172.57 ± 1.5 J/K/mol
molar heat capacity at constant pressure ([3]; 344.98 K): 173.51 ± 1.5 J/K/mol
molar heat capacity at constant pressure ([3]; 347.78 K): 174.14 ± 1.5 J/K/mol
molar heat capacity at constant pressure ([3]; 350.55 K): 175.82 ± 1.5 J/K/mol
molar heat capacity at constant pressure ([3]; 353.29 K): 176.47 ± 1.5 J/K/mol
molar heat capacity at constant pressure ([3]; 355.96 K): 177.08 ± 1.5 J/K/mol
molar heat capacity at constant pressure ([3]; 358.4 K): 178.59 ± 1.5 J/K/mol
molar heat capacity at constant pressure ([3]; 360.61 K): 179.15 ± 1.5 J/K/mol
molar heat capacity at constant pressure ([3]; 363.31 K): 180.38 ± 1.5 J/K/mol
molar heat capacity at constant pressure ([3]; 365.84 K): 181.56 ± 1.5 J/K/mol
molar heat capacity at constant pressure ([3]; 367.88 K): 182.97 ± 1.5 J/K/mol
molar heat capacity at constant pressure ([3]; 370.49 K): 183.67 ± 1.5 J/K/mol
molar heat capacity at constant pressure ([3]; 372.97 K): 184.42 ± 1.5 J/K/mol
